Measurements reported in patent US8415342B2, “Besifloxacin ophthalmic composition for the treatment or control of infection” (Bausch & Lomb Incorporated, priority 2008, dated 2013).
Values after ≈ are worked out from the molar mass of the structure shown.

Columns and labels:
S. pneumoniae = test: In vitro multistep selection for besifloxacin-resistant mutants; type: cell-based; details: for MIC: Streptococcus pneumoniae
Description: (§1) Furthermore, an experiment was conducted to assess the mechanism of action of besifloxacin in S. pneumoniae, S. aureus, and E. coli via step selections for isolates with decreased susceptibility to besifloxacin, as well as by testing for altered susceptibilities of ciprofloxacin-resistant variants of all three species containing genetically defined mutations in the quinolone resistance determining regions (QRDRs) of structural genes encoding DNA gyrase and topoisomerase IV (Table 2).
(§2) Besifloxacin is a potent antibacterial agent by virtue of its efficient biochemical inhibition of type II bacterial topoisomerases at low micromolar levels. Besifloxacin was associated with a low mutant prevention concentration (MPC), especially in the two Gram-positive pathogens, S. aureus and S. pneumoniae, in which the MPCs were only four times higher than the MICs for those organisms. Correspondingly, very few drug-resistant mutants were obtained in in vitro experiments for those two species (<1 mutant per 10^10 cells).
(§3) As a consequence, strains with high-level resistance would only emerge if both targets were mutated simultaneously, an event that is not very likely in strains that lack predisposing mutations. A dual-targeting mechanism of action for besifloxacin is supported by the following experimental evidence: • In S. aureus and S. pneumoniae, single (1st step) mutants were extremely rare (<1/10^10 cells) and only few or no double (2nd step) mutants were obtained (Table 3). • Single mutations in the gyrA or in the parC gene were obtained in S. aureus as well as in S. pneumoniae. […] By comparison, all single mutations in quinolone-resistant strains of E. coli were mapped to either the gyrA or the gyrB gene consistent with the general finding that quinolones primarily target the DNA gyrase in Gram-negative bacteria. • Biochemical experiments with the purified DNA gyrase and topoisomerase IV enzymes from S. pneumoniae and E. coli were performed.

E. coli = test: as above; type: cell-based; details: for MIC: Escherichia coli
Description: as §1, §2, §3

S. aureus = test: as above; type: cell-based; details: for MIC: Staphylococcus aureus
Description: as §1, §2, §3

[1] = Nonclinical ocular tolerance, QID dosing for 28 days; type: in vivo
Text: ERG measurements were included in the studies due to the known retinal toxicity associated with some fluoroquinolones.

[2] = tested on: ocular isolates (S. pneumoniae, S. epidermidis, H. influenzae, and S. aureus); test: MBC versus MIC, all recent ocular isolates tested; type: cell-based
Text: The success of in vivo antimicrobial action depends to a large extent on the host's defense mechanisms, which ultimately sequester and kill the microorganisms that have been reduced by the bacteriostatic/bactericidal action of the antibacterial agent. Thus, it is also of interest to profile the bactericidal activity of antimicrobial agents. The assessment of in vitro bactericidal activity can be accomplished in multiple ways, for example, the time-kill method or the determination of the minimum bactericidal concentration (MBC). […] Bactericidal agents are characterized by low MBC:MIC ratios.

[3] = 2nd step, NMO = No mutants obtained

## N[C@@H]1CCCCN(c2c(F)cc3c(=O)c(C(=O)O)cn(C4CC4)c3c2Cl)C1 [Besifloxacin, (R)-(+)-(3-amino-2,3,4,5,6,7-hexahydro-1H-azepin-1-yl)-8-chloro-1-cyclopropyl-6-fluoro-1,4,-dihydro-4-oxo-3-quinolinecarboxylic acid]
S. pneumoniae; 1st step
  MPC (Mutant prevention concentration): 0.5 µg/mL
  MSW (Mutant Selection Window): 0.12 to 0.25 µg/mL
  Mutation rate at 4 × MIC: <7 × 10^−10
  MIC: 0.12 µg/mL (≈ 0.305 µM)
S. pneumoniae; 2nd step
  MPC (Mutant prevention concentration): 2 to 4 µg/mL
  MSW (Mutant Selection Window): 0.5 to 2 µg/mL
  Mutation rate at 4 × MIC: 2.4 × 10^−8
  MIC: 0.5 µg/mL (≈ 1.27 µM)
S. pneumoniae; in vitro
  frequency of drug-resistant (single, 1st step) mutants: < 1 per 10^10 cells
E. coli; 1st step
  MPC (Mutant prevention concentration): 4 µg/mL
  MSW (Mutant Selection Window): 0.12 to 2 µg/mL
  Mutation rate at 4 × MIC: 3.8 × 10^−8
  MIC: 0.12 µg/mL (≈ 0.305 µM)
E. coli; 2nd step
  MPC (Mutant prevention concentration): 16 µg/mL
  MSW (Mutant Selection Window): 2 to 8 µg/mL
  Mutation rate at 4 × MIC: 6 × 10^−9
  MIC: 2 µg/mL (≈ 5.08 µM)
S. aureus; 1st step
  MPC (Mutant prevention concentration): 0.12 µg/mL
  MSW (Mutant Selection Window): 0.03 to 0.06 µg/mL
  Mutation rate at 4 × MIC: 3.3 × 10^−10
  MIC: 0.03 µg/mL (≈ 0.0762 µM)
S. aureus; 2nd step
  MPC (Mutant prevention concentration): 0.25 µg/mL
  MIC: 0.25 µg/mL (≈ 0.635 µM)
S. aureus; [3]
  MSW (Mutant Selection Window): NMO
  Mutation rate at 4 × MIC: NMO
S. aureus; in vitro
  frequency of drug-resistant (single, 1st step) mutants: < 1 per 10^10 cells
[1]
  non-clinical ocular tolerance: no adverse effects observed
[2]
  isolates with MBC within 4-fold of the MIC: more than 80%
